# Measured values taken from patent US7199115B2, “17α-fluorosteroids, pharmaceutical compositions containing 17α-fluorosteroids and a method of making them” (Schering AG, priority 2004, dated 2007).
# Like-named read-outs stand apart in the source and are kept apart here.
# Experiments:
# Progesterone Receptor = biological target: T1, Progesterone Receptor (Oryctolagus cuniculus, UniProt P06186); assay: Binding to progesterone receptor, uterus cytosol, tracer 3H-ORG 2058; settings: rabbit uterus cytosol, 0–4° C., 18 h, Progesterone=100%
# T1 construct: Biological material: Uterus cytosol, rabbit, pressed; from tissue; host or cells: rabbit uterus cytosol
# T1 sequence (P06186 1-930): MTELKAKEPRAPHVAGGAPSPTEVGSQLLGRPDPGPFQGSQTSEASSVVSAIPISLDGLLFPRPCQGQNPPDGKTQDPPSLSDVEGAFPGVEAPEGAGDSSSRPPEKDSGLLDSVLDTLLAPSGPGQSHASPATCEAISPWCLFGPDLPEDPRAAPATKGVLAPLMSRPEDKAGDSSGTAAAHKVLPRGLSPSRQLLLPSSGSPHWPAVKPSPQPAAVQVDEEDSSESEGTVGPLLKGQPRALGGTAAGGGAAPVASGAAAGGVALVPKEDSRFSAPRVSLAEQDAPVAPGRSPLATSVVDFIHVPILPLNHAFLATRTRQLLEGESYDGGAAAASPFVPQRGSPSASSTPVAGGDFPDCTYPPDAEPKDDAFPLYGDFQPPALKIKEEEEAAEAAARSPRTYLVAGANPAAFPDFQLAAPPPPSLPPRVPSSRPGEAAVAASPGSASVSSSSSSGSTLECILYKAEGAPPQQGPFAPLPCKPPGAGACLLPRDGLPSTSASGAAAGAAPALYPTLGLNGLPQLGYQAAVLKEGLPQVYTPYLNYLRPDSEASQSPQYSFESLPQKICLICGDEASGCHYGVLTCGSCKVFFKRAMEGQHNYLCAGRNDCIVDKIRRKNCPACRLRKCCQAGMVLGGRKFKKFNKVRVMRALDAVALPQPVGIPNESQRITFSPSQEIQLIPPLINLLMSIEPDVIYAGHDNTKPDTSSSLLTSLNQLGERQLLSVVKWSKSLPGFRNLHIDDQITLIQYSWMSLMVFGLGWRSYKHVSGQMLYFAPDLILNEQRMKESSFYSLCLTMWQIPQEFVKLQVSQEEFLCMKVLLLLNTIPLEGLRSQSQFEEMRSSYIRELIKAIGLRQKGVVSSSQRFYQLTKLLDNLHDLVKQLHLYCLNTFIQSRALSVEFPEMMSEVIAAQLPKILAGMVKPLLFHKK
# Excerpt: Binding of Compound I to Progesterone Receptor
# pregnancy maintenance = assay: Gestagen activity in pregnancy maintenance test; type: in vivo; settings: mouse
# 5α-reductase-Type-2 = biological target: T2, 5α-reductase-Type-2 (Homo sapiens, UniProt P31213); assay: 5α-reductase-Type-2 activity in genital skin homogenates; type: biochemical; settings: optimum conditions at pH=5.5
# T2 construct: Under optimum conditions at pH=5.5 in genital skin homogenates; from tissue; host or cells: genital skin homogenates
# T2 sequence (P31213 1-254): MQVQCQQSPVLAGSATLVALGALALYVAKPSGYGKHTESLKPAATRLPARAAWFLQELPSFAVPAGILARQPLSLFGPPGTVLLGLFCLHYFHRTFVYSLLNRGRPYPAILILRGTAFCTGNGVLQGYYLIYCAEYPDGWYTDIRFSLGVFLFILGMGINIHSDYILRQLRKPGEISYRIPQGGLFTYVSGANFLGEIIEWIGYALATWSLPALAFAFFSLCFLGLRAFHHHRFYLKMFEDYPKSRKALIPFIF
# Excerpt: Subsequently experimental data for progesterone receptor binding, 5α-reductase-type-2 activity in genital skin homogenates and in vivo data in the case of the exemplary compound of the invention, (E)-17α-fluoro-3-oxo-estra-4-en-17β-carbaldehyde oxime, are reported here.
# PR-B = biological target: T3, PR-B (Homo sapiens, UniProt P06401); assay: PR-B antagonisms and agonisms; type: cell-based
# T3 sequence (P06401 1-933): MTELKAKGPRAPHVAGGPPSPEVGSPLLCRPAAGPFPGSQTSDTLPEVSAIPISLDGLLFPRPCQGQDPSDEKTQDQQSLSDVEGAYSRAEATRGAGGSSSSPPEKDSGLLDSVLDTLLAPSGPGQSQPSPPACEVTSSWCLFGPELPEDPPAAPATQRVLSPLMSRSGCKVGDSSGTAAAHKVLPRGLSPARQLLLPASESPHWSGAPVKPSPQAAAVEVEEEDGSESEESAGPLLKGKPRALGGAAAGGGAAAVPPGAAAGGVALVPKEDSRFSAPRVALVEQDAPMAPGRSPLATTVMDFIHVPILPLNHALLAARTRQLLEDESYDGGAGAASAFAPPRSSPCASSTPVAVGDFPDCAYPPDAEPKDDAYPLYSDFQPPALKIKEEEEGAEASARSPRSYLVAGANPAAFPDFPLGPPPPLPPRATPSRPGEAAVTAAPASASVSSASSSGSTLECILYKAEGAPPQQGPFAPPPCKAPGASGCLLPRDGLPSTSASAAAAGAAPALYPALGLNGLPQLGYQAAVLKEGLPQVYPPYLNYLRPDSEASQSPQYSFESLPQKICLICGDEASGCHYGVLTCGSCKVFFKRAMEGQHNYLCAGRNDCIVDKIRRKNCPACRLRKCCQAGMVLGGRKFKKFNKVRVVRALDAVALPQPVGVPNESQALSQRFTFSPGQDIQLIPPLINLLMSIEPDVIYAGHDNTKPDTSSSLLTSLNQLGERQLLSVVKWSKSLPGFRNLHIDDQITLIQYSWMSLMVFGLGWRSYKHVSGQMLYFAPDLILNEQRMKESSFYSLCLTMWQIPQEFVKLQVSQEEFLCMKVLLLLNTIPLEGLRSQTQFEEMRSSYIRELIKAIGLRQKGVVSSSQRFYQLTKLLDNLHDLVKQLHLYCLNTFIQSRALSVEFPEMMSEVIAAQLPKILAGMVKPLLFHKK
Relative Binding affinity RBA (Progesterone Receptor),Compound,Rate of Maintained Gravidity (pregnancy maintenance; dosage 0.003 Mg/animal/day),Rate of Maintained Gravidity (pregnancy maintenance; dosage 0.03 Mg/animal/day),Rate of Maintained Gravidity (pregnancy maintenance; dosage 0.3 Mg/animal/day),IC50 (5α-reductase-Type-2),"IC50 (PR-B; PR-B agonism, read-out: Agonism IC50)","IC50 (PR-B; PR-B antagonism, read-out: Antagonism IC50)"
100%,CC(=O)[C@H]1CC[C@H]2[C@@H]3CCC4=CC(=O)CC[C@]4(C)[C@H]3CC[C@]12C [Progesterone],–,–,–,–,–,–
–,"C[C@]12CCC3C4CCC(=O)C=C4CCC3C1CC[C@]2(F)/C=N/O (stereo partly drawn) [Compound 7, (E)-17α-fluoro-3-oxo-estra-4-en-17β-carbaldehyde oxime]",0/3,2/2,3/3,245 nM,0.25 nM,0.339 nM
